Data on 18 compounds can be found in the Kinase Knowledgebase extract (Sharma et al. 2016).

Structures are written as SMILES.

The target of test [1] is EGFR (human) (UniProt P00533). The conditions noted are these: sf-539.
In test [2] the target is EGFR (human) (UniProt P00533). To be noted: hct-116.
Test [3] concerns the target EGFR (human) (UniProt P00533). To be noted: uacc-62.
In test [4] the target is EGFR (human) (UniProt P00533). The conditions noted are these: du-145.
Test [5] has as its target EGFR (human) (UniProt P00533). The conditions noted are these: ccrf-cem.
The target of test [6] is EGFR (human) (UniProt P00533). To be noted: ovcar-3.
Test [7] addresses EGFR (human) (UniProt P00533). To be noted: sn12c.
In test [8] the target is EGFR (human) (UniProt P00533). To be noted: hop-62.
Test [9] deals with EGFR (human) (UniProt P00533). To be noted: mda-mb-435.
In test [10] the target is EGFR (mouse) (UniProt P00533). To be noted: baf3.
In test [11] the target is EGFR (human) (UniProt P00533). The conditions noted are these: mcf-7.

Sequence of EGFR (human) (P00533 whole entry, looked up): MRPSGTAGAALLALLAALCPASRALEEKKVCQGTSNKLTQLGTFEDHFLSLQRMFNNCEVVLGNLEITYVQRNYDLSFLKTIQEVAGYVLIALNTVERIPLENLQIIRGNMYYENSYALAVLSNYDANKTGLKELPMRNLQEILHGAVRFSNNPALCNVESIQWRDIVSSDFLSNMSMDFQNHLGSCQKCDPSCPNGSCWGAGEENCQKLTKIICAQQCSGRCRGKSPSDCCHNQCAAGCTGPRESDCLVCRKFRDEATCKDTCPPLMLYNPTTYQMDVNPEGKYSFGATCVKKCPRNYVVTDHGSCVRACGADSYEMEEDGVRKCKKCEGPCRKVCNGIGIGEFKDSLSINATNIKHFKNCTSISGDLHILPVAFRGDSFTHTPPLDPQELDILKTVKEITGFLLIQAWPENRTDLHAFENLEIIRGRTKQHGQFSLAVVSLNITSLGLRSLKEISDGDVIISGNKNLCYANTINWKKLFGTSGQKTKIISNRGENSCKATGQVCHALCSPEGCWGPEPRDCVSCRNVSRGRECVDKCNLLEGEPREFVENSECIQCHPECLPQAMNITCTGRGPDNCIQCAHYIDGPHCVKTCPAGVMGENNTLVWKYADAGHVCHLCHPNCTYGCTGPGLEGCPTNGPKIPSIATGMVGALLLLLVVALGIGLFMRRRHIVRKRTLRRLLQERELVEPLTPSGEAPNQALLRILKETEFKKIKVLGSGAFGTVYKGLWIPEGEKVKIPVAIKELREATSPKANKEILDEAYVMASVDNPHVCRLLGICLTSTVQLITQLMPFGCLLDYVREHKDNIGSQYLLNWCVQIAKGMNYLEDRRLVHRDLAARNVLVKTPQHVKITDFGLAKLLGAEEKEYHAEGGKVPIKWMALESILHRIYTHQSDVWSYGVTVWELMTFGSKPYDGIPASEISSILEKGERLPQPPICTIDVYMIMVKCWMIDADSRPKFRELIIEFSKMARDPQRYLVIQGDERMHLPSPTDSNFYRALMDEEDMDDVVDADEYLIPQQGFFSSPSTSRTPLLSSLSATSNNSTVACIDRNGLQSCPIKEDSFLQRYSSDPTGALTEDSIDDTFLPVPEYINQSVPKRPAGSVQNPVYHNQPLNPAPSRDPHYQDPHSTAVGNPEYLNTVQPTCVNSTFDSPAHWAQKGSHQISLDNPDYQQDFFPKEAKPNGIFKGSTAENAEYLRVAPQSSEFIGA

On to `CCCCCCCCCCCCNC(=O)c1cc(NCc2cc(O)ccc2O)ccc1O`, for which the IC50 was 20 µM in test [1]; 2.1 µM in [2]; 3.2 µM in test [3]; 11 µM in test [4]; 0.34 µM in test [5]; 1.9 µM in [6]. Further, the half-inhibitory concentration (IC50) amounted to 2.6 µM in test [7], 3.8 µM in [8] and 3.2 µM in test [9].

For `COc1ccc(CCNC(=O)c2cc(NCc3cc(O)ccc3O)ccc2O)cc1`, the IC50 in test [1] was determined as 16 µM; in [2] it was 23 µM; in test [4], 21 µM; in test [5], 3.2 µM; in [6] it was 5.5 µM; in test [7], 72 µM. Also, the IC50 in [10] was more than 100 µM; in test [8] it was 12 µM; in [9], 16 µM.

Turning to `O=C(NCCc1ccccc1)c1cccc(NCc2cc(O)ccc2O)c1`, the IC50 in test [1] is 15 µM; in test [2], 16 µM; in test [3], 13 µM; in test [4] it was 17 µM; in test [5], 4.4 µM; in test [6], 2.8 µM. Also, the half-inhibitory concentration (IC50) in test [7] is 13 µM; in test [8], 3.8 µM; in test [9], 15 µM.

As for `O=C(NCCc1ccc(Br)cc1)c1cc(NCc2cc(O)ccc2O)ccc1O`, the IC50 in test [1] was determined as 15.8 µM; in test [2], 7.6 µM; in [3], 8.6 µM; in test [4] it was 16 µM; in test [8], 18 µM; in test [9] it was 10 µM.

On to `O=C(NCCc1ccc(Cl)cc1)c1cc(NCc2cc(O)ccc2O)ccc1O`, for which the IC50 was 8.4 µM in test [1]; 15 µM in [2]; 16 µM in [4]; 1.6 µM in [5]; 5.9 µM in test [6]; 9.8 µM in test [7]. In addition, the results for the IC50 in [8] and in test [9] were 17 µM and 20 µM, respectively.

Consider `CC(C)CCCC(C)[C@H]1CCC2C3CCC4C[C@@H](NC(=O)c5cc(NCc6cc(O)ccc6O)ccc5O)CC[C@]4(C)C3CC[C@@]21C` (stereo partly drawn), for which, in [11], the IC50 is more than 50 µM.

In the case of `CCCCCCNC(=O)c1cc(NCc2cc(O)ccc2O)ccc1O`, the IC50 in [1] turned out to be 2.3 µM; in [2], 17 µM; in test [3], 12 µM; in [4], 15 µM; in [5], 0.56 µM; in test [6], 4 µM. The IC50 in test [7] was 6.1 µM; in test [8] it was 19 µM; in test [9] it was 15 µM.

In the case of `O=C(NCc1ccccc1)c1ccc(NCc2cc(O)ccc2O)cc1`, the IC50 in test [1] was found to be 9.7 µM; in test [2], 10 µM; in test [3], 12 µM; in test [4], 15 µM; in [5], 2.7 µM; in test [6], 6.8 µM. In addition, the IC50 was 9.7 µM in test [7], more than 100 µM in test [10], 20 µM in [8] and 12 µM in [9].

As to `O=C(NCCc1ccccc1)c1ccc(NCc2cc(O)ccc2O)cc1`, the IC50 in test [1] was 8.5 µM; in test [2], 7.4 µM; in test [3], 9.4 µM; in test [4], 14 µM; in test [5], 0.59 µM; in [6] it was 2.7 µM. Also, the values for the IC50 in test [7], in [10] and in [8] were 7.4 µM, more than 200 µM and 13 µM, respectively.

For `O=C(NCCCc1ccccc1)c1ccc(NCc2cc(O)ccc2O)cc1`, the IC50 stood at 3.4 µM in [1]; 6.4 µM in test [2]; 7.9 µM in test [3]; 13 µM in [4]; 0.83 µM in [5]; 3.2 µM in test [7]. This compound also displayed a concentration for half-maximal inhibition (IC50) in test [8] of 16 µM.

Consider `O=C(NCCCc1ccccc1)c1cc(NCc2cc(O)ccc2O)ccc1O`, for which the IC50 worked out at 16 µM in test [1]; 24 µM in [2]; 14 µM in test [3]; 8.4 µM in [4]; 2.4 µM in test [5]; 6.5 µM in test [6]. The IC50 in test [7] worked out at 15 µM; in test [8], 22 µM; in test [9] it was 18 µM.

As to `O=C(NCc1ccccc1)c1cc(NCc2cc(O)ccc2O)ccc1O`, the IC50 in [1] stood at 21 µM; in test [3] it was 15 µM; in test [4], 16 µM; in test [6], 21 µM; in [7] it was 12 µM; in test [8], 23 µM. Moreover, in [9], the IC50 was 30 µM.

As for `O=C(NCCc1ccc(O)cc1)c1cc(NCc2cc(O)ccc2O)ccc1O`, the IC50 in test [1] came out at 2.5 µM; in test [3] it was 18 µM; in test [4], 17 µM; in test [6] it was 62 µM; in test [7], 19 µM; in [8], 2.5 µM. In test [9], this compound returned an IC50 of 23 µM.

As for `O=C(NC1CCc2ccccc2C1)c1cc(NCc2cc(O)ccc2O)ccc1O` (stereo not drawn), the IC50 is 2.7 µM in test [1]; 16 µM in [2]; 14 µM in [3]; 17 µM in test [4]; 1.4 µM in test [5]; 18 µM in test [7]. The IC50 in test [8] came out at 17 µM; in [9], 9.2 µM.

Turning to `O=C(NCCc1ccc(F)cc1)c1cc(NCc2cc(O)ccc2O)ccc1O`, the IC50 in test [1] was determined as 9.2 µM; in [2] it was 9.2 µM; in [3], 7.8 µM; in test [4], 18 µM; in test [5], 0.29 µM; in test [6], 11 µM. Also, the IC50 is 7.7 µM in test [7] and 13 µM in test [9].

On to `O=C(NCCc1ccccn1)c1cc(NCc2cc(O)ccc2O)ccc1O`, for which the IC50 was determined as 29 µM in [1]; 17 µM in test [2]; 17 µM in test [3]; 17 µM in test [4]; 1 µM in test [5]; 17 µM in test [6]. In addition, the IC50 in [7] came out at 19 µM; in test [8] it was 20 µM; in test [9] it was 13 µM.

Consider `O=C(NCCc1ccccc1)c1cc(NCc2cc(O)ccc2O)ccc1O`, for which the IC50 in test [1] was found to be 17 µM; in test [2] it was 18 µM; in test [3], 14 µM; in test [4] it was 16 µM; in [5] it was 2.7 µM; in [6] it was 7.7 µM. The values for the IC50 in [7], in test [8] and in [9] were 18 µM, 20 µM and 19 µM, respectively.

In the case of `O=C(NCCN1CCOCC1)c1cc(NCc2cc(O)ccc2O)ccc1O`, the IC50 in test [1] amounted to 19 µM; in [2], 20 µM; in test [3] it was 17 µM; in [4], 17 µM; in [5] it was 1.8 µM; in test [6], 87 µM. Also, the IC50 is 22 µM in [7], more than 50 µM in test [10] and 13 µM in test [9].

The IC50 is the concentration that inhibits the measured activity by half. Higher therefore signals a need for much substance.
